Data as given in patent US20240051955A1, “4-AMINO-3-(4-PHENOXYPHENYL)-1,3-DIHYDRO-2H-IMIDAZO[4,5-C]PYRIDIN-2-ONE DERIVATIVES AND SALTS THEREOF” (Genzyme Corporation, priority 2020, published 2024).

Experiments:
[1] = molecular target: BTK(h) (Homo sapiens (Human), UniProt Q06187); assay: BTK(h) kinase activity study; assay type: biochemical; conditions: no pre-incubation of compound with enzyme/substrate mix prior to ATP addition
Description: Compounds of Formula Ib, Formula II, and Formula III were tested against BTK(h) as described herein. All compounds tested were prepared to a working stock of 50× final assay concentration in 100% DMSO. Where appropriate, more concentrated stocks were diluted manually to 50× using 100% DMSO. Compounds, which were powders, were reconstituted to a 10 mM stock in 100% DMSO before further dilution to 50×.
The required volume of the 50× stock of test compound was added to the assay well before a reaction mix containing the enzyme and substrate was added. The reaction was initiated by the addition of ATP at the selected concentration. There was no pre-incubation of the compound with the enzyme/substrate mix prior to ATP addition.
Results are expressed as kinase activity remaining, as a percentage of the DMSO control. This is calculated using the following formula: […]
For IC50 determinations, data are analyzed using XLFit version 5.3 (ID Business Solutions). Sigmoidal dose-response (variable slope) curves are fit based on the mean result for each test concentration using non-linear regression analysis. Where the top and/or bottom of the curve fall >10% out with 100 and 0, respectively, either or both of these limits may be constrained at 100 and 0, provided that the QC criterion on R^2 is met.

[2] = molecular target: Dopamine transporter (h) (Homo sapiens (Human), UniProt Q01959); assay: Dopamine transporter (h) binding assay, [3H]BTCP; conditions: Human recombinant (CHO cells); [3H]BTCP 4 nM; 120 min 4° C.
Description: (§1) Compounds of Formula Ia, Formula Ib, Formula III, Formula IV, and Formula V were tested in various in vitro assays. Compound binding was calculated as a % inhibition of the binding of a radioactively labeled ligand specific for each target. Compound enzyme inhibition effect was calculated as a % inhibition of control enzyme activity.
The general procedure is noted below. See Pristupa, Z. B. et al. (1994), Mol. Pharmacol., 45: 125-135. Minor variations to the experimental protocol described below may have occurred during the testing, but if so, they had no impact on the quality of the results obtained.

[3] = molecular target: H2 (h) (Homo sapiens (Human), UniProt P25021); assay: H2 (h) binding assay, [125I]APT; conditions: Human recombinant (CHO cells); [125I]APT 0.075 nM; 120 min RT
[4] = molecular target: δ (DOP) (h) (Homo sapiens (Human), UniProt P41143); assay: δ (DOP) (h) binding assay, [3H]DADLE; conditions: Human recombinant (Chem-1 (RBL) cells); [3H]DADLE 0.5 nM; 60 min RT
Description: as §1
The general procedure is noted below. See Simonin, F. et al. (1994), Mol. Pharmacol., 46: 1015-1021. Minor variations to the experimental protocol described below may have occurred during the testing but if so, they had no impact on the quality of the results obtained.

[5] = molecular target: kappa (h) (KOP) (Homo sapiens (Human), UniProt P41145); assay: kappa (h) (KOP) binding assay, [3H]U69593; conditions: Human recombinant (RBL cells); [3H]U69593 0.5 nM; 60 min RT
Description: as §1
The general procedure is noted below. See Simonin, F. et al. (1995), Proc. Natl. Acad. Sci. U.S.A., 92: 7006-7010. Minor variations to the experimental protocol described below may have occurred during the testing but if so, they had no impact on the quality of the results obtained.

[6] = molecular target: 5-HT5a (h) (Homo sapiens (Human), UniProt P47898); assay: 5-HT5a (h) binding assay, [3H]LSD; conditions: Human recombinant (HEK-293 cells); [3H]LSD 1.5 nM; 120 min 37° C.
Description: as §1
The general procedure is noted below. See Rees, S. et al. (1994), FEBS Lett., 355: 242-246. Minor variations to the experimental protocol described below may have occurred during the testing but if so, they had no impact on the quality of the results obtained.

[7] = molecular target: Norepinephrine transporter (h) (Homo sapiens (Human), UniProt P23975); assay: Norepinephrine transporter (h) binding assay, [3H]nisoxetine; conditions: Human recombinant (CHO cells); [3H]nisoxetine 1 nM; 120 min 4° C.
Description: as §1
The general procedure is noted below. See Pacholczyk, T. et al. (1991), Nature, 350: 350-354. Minor variations to the experimental protocol described below may have occurred during the testing but if so, they had no impact on the quality of the results obtained.

Chain of BTK(h) (Q06187 whole entry): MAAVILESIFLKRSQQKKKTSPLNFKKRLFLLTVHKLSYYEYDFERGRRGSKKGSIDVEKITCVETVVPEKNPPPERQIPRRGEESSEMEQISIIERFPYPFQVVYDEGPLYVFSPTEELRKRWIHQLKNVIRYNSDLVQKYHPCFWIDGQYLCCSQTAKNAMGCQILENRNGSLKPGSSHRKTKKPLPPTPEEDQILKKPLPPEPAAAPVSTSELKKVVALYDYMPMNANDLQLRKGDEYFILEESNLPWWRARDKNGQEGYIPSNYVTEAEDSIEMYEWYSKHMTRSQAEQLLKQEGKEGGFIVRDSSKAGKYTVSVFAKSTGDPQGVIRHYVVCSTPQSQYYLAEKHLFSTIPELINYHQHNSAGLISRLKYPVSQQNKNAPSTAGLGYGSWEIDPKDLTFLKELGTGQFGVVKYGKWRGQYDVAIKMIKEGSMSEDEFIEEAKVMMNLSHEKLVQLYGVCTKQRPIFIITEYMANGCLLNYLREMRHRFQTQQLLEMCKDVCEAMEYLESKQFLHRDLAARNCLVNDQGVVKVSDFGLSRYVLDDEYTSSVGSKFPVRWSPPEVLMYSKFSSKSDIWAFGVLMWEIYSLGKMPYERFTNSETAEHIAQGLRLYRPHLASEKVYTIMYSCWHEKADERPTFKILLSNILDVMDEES
Chain of Dopamine transporter (h) (Q01959 whole entry): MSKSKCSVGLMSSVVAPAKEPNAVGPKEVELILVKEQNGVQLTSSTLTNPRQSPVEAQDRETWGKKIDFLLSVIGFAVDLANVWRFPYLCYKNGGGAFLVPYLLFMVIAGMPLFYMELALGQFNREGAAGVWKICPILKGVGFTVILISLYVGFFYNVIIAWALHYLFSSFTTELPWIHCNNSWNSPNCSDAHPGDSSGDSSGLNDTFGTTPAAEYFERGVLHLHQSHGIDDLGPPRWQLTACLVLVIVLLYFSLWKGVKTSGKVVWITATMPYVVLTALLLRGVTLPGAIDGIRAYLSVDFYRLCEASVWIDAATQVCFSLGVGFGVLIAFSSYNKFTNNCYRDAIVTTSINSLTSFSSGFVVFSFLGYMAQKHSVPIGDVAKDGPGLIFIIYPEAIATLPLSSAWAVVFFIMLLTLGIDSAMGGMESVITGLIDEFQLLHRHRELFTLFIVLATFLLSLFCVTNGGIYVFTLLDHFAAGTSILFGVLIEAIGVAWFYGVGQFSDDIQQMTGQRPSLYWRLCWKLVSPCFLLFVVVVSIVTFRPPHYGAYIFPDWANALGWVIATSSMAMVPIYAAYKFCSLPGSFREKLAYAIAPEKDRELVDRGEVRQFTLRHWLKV
Chain of Norepinephrine transporter (h) (P23975 whole entry): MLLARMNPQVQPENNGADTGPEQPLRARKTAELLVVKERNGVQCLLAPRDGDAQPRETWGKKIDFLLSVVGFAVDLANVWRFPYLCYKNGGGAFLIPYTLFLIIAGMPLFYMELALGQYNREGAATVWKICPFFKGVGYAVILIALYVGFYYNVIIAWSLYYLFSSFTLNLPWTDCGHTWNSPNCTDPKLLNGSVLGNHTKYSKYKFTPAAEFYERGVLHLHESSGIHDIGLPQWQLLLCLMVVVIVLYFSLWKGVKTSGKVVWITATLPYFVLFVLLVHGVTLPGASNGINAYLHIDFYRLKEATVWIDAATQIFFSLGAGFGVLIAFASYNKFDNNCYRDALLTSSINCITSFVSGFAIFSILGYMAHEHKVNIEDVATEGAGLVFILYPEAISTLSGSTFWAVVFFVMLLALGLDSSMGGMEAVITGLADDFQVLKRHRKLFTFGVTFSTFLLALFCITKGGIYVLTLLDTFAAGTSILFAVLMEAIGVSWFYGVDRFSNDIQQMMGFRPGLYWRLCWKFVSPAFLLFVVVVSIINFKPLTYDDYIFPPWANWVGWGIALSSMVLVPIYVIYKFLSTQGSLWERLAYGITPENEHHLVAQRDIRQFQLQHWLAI
Chain of 5-HT5a (h) (P47898 whole entry): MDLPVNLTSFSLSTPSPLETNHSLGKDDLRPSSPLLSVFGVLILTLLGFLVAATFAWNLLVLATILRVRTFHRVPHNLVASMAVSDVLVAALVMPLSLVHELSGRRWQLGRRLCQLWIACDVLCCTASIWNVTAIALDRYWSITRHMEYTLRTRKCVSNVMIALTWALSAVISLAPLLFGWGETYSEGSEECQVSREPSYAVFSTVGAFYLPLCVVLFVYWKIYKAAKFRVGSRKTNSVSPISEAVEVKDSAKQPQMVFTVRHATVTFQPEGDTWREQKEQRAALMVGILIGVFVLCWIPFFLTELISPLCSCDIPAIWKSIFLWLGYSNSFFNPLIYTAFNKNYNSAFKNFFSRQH
Chain of H2 (h) (P25021 whole entry): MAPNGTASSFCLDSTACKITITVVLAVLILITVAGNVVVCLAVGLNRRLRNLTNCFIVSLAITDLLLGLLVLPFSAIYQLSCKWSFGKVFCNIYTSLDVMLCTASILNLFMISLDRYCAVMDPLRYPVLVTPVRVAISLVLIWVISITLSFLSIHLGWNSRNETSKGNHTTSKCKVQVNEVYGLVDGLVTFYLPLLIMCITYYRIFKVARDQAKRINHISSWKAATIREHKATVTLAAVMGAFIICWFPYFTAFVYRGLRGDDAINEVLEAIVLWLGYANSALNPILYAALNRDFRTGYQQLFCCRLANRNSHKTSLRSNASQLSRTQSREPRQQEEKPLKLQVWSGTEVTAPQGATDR
Chain of δ (DOP) (h) (P41143 whole entry): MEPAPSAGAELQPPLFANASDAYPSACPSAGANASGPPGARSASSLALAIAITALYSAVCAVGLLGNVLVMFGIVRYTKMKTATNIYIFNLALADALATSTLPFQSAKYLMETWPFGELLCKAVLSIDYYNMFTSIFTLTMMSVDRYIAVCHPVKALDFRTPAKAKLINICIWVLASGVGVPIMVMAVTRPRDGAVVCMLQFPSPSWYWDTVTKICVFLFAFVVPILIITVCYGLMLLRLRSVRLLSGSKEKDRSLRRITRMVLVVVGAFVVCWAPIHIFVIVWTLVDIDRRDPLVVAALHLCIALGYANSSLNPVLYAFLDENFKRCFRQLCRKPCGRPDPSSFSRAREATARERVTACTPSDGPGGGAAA
Chain of kappa (h) (KOP) (P41145 whole entry): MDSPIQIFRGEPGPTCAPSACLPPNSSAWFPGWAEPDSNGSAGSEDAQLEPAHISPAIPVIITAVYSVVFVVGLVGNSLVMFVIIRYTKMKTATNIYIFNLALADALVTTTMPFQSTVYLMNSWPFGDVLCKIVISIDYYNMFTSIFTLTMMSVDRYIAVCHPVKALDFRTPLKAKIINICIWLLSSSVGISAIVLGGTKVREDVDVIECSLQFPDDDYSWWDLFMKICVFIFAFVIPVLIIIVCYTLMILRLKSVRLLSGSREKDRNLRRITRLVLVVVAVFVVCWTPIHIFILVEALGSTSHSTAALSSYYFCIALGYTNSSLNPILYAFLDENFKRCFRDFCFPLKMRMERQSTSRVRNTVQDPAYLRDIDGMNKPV

| Compound | IC50 [1] [nM] | % inhibition of the binding of radioactively labeled ligand [2] [%] | % inhibition of the binding of radioactively labeled ligand [3] [%] | % inhibition of the binding of radioactively labeled ligand [4] [%] | % inhibition of the binding of radioactively labeled ligand [5] [%] | % inhibition of the binding of radioactively labeled ligand [6] [%] | % inhibition of the binding of radioactively labeled ligand [7] [%] |
| --- | --- | --- | --- | --- | --- | --- | --- |
| Nc1nccc2c1n(-c1ccc(Oc3ccccc3)cc1)c(=O)n2[C@@H]1CCCN(C(=O)C(O)CO)C1 (stereo partly drawn) [Formula II, 4-amino-3-(4-phenoxyphenyl)-1-[(3R)-1-(2,3-dihydroxypropanoyl)-3-piperidyl]imidazo[4,5-c]pyridin-2-one] | 279 |  |  |  |  |  |  |
| Nc1nccc2c1n(-c1ccc(Oc3ccccc3)cc1)c(=O)n2[C@@H]1CCCNC1 [Formula III] | 1380 | 96.2 | 56.7 | 56.7 | 54.6 | 56.1 | 66.7 |
| C=CC(=O)N1C[C@@H](O)C[C@@H](n2c(=O)n(-c3ccc(Oc4ccccc4)cc3)c3c(N)nccc32)C1 [Formula Ia, 4-amino-1-[(3R,5S)-5-hydroxy-1-prop-2-enoyl-3-piperidyl]-3-(4-phenoxyphenyl)imidazo[4,5-c]pyridin-2-one] |  | 65 |  |  |  |  |  |
| C=CC(=O)N1C[C@H](O)C[C@@H](n2c(=O)n(-c3ccc(Oc4ccccc4)cc3)c3c(N)nccc32)C1 [Formula Ib, 4-amino-1-[(3R,5R)-5-hydroxy-1-prop-2-enoyl-3-piperidyl]-3-(4-phenoxyphenyl)imidazo[4,5-c]pyridin-2-one] | 34 |  |  |  |  |  |  |
